{"source": "patent US20220133717A1", "about": "“RABEXIMOD IN THE TREATMENT OF RHEUMATOID ARTHRITIS” (CYXONE AB, priority 2020, published 2022)", "test_system": "patients with moderate or severe active rheumatoid arthritis", "test": "Phase II clinical trial: efficacy (ACR20/50, DAS28, EULAR response, ACR components)", "assay_type": "in vivo, human", "procedure": "The primary objective of this study was to evaluate the efficacy (American College of Rheumatology 20) of Rabeximod administered orally once daily for 12 weeks in combination with a stable dose of methotrexate in patients with moderate or severe active rheumatoid arthritis. Efficacy was evaluated by American College of Rheumatology 20 (66/68 joint count) after 12 weeks of treatment.\nThe primary endpoint of this study is the American College of Rheumatology (ACR20) 20 improvement measured after 12 weeks of treatment with study drug. The ACR20 is a composite score defined as an improvement of 20% in the number of swollen and tender joints and a 20% improvement in 3 of the following 5: • Patient self-assessed disability by modified Health Assessment Questionnaire (mHAQ) • Physician Global assessment • Subject Global assessment • Patient pain assessment • Acute phase reactant (C-reactive protein [CRP]) Secondary efficacy endpoints were as follows: • ACR20 improvement measured after 4 and 8 weeks of treatment • Subgroup analysis of ACR20 results from patients enrolled with baseline CRP >1.5 mg/dL. • ACR50/70 improvement measured after 4, 8 and 12 weeks • Original Disease Activity Score (DAS) change from baseline (according to the European League Against Rheumatism [EULAR] Response Criteria). Note: the Original DAS was replaced with DAS28 • Change from baseline in: number of swollen/tender joints, morning stiffness duration. Subject and Physician Global assessments, pain assessed by Visual Analogue Scale (VAS), self-assessed physical disability (mHAQ), erythrocyte sedimentation rate (ESR) and CRP • The evaluation of pharmacokinetic (PK) and pharmacodynamic (PD) high sensitive CRP, TNF-a, interleukin-6 [IL-6] and anti-cyclic citrullinated peptide antibody [anti-CCP]) over time\nThis was a multicentre, multinational, dose-ranging, randomised, double-blind, multiple dose, placebo-controlled, parallel-group study of Rabeximod administered orally in a total of 225 enrolled patients with moderate or severe active RA. All patients must have been receiving weekly methotrexate treatment for at least 16 weeks (with unchanged doses for at least 8 weeks) up to Day 0 of study.\nDiagnosis of RA was based on the American Rheumatism Association (ARA) 1987 revised criteria, having an ACR global functional class of 1 to 3, stable methotrexate dose of at least 15 mg per week and central laboratory CRP level at study entry of at least 1.5 mg/dL and clinical findings of active disease (at least 6 swollen and 6 tender joints to palpation). Individual patient duration in the study was approximately 126 days (a 14-day screening period, an 84-day treatment period [12 weeks], and a 28 day [4-week] follow-up period).\nAfter meeting the inclusion and exclusion criteria and providing informed consent, patients were randomly assigned (1:1:1:1 ratio) to receive 1 of the following treatments: • 6.25 mg Rabeximod • 15 mg Rabeximod • 37.5 mg Rabeximod • Placebo\nAn assessment of tender and swollen joints was performed for the ACR response criteria. Joints to be evaluated for disease activity assessment (using the ACR 66/68 joint count) included the following: temporomandibular, sternoclavicular, acromioclavicular, shoulder, elbow, wrist, all 5 metacarpophalangeal joints, 4 proximal interphalangeal joints, 4 distal interphalangeal, thumb interphalangeal joint, hip (for tenderness only), knee, ankle, tarsus, 5 metatarsophalangeal, 4 proximal interphalangeal and foot thumb interphalangeal joints at each side. In accordance with the protocol, an independent joint reviewer performed the rheumatology examination, where possible. If an independent joint reviewer was not available, the same examiner performed all rheumatology examinations for a patient throughout the study.\nPatient satisfaction in performing activities of daily living was assessed using the mHAQ. […]"}
{"compound": "Cc1cc2nc3c4cc(Cl)ccc4n(CC(=O)NCCN(C)C)c3nc2cc1C", "note": "[Rabeximod, 9-Chloro-2,3-dimethyl-6-(N,N-dimethylaminoethylamino-2-oxoethyl)-6H-indolo-[2,3-b]quinoxaline]", "values": [{"measurement": "percentage mean reduction in joint pain, comparison of dose groups", "setting": "15 mg group", "value": "best results"}, {"measurement": "percentage of patients achieving ACR50, comparison of dose groups", "setting": "15 mg group", "value": "best results"}, {"measurement": "reduction in duration of morning stiffness, comparison of dose groups", "setting": "15 mg group, especially at week 16", "value": "best results"}, {"measurement": "percentage of patients achieving ACR50 response compared with placebo", "setting": "\"At Week\" (number not given), 6.25, 15 and 37.5 mg groups", "value": "higher percentage"}, {"measurement": "change from baseline in each component of the ACR response (joint count 66/68, Global assessments VAS, joint pain, HAQ-DI, CRP, ESR)", "setting": "Rabeximod groups", "value": "notable decrease (improvement)"}, {"measurement": "change in mean DAS28 score from baseline", "setting": "Week 12, 6.25 mg group (placebo −0.983)", "value": "−1.063", "unit": "points"}, {"measurement": "change in mean DAS28 score from baseline", "setting": "Week 12, 15 mg group (placebo −0.983)", "value": "−1.214", "unit": "points"}, {"measurement": "change in mean DAS28 score from baseline", "setting": "Week 12, 37.5 mg group (placebo −0.983)", "value": "−1.204", "unit": "points"}, {"measurement": "proportion of patients achieving ACR20 compared with placebo", "setting": "Week 12, Rabeximod groups", "value": "larger proportion"}, {"measurement": "increases in the proportions of patients achieving ACR50", "setting": "Week 16", "value": "greater"}, {"measurement": "percentage mean reduction from baseline in swollen (66) and tender (68) joint counts, Physician and Subject Global assessments", "setting": "Week 16", "value": "notable improvements"}, {"measurement": "percentage of patients achieving a good or moderate EULAR response", "setting": "Week 16, 6.5 mg group (placebo 38.5%)", "value": 37.8, "unit": "%"}, {"measurement": "proportions of patients achieving ACR20, comparison of dose groups", "setting": "Week 16, 15 mg group", "value": "best results"}, {"measurement": "reduction in swollen/tender joint counts and Global assessments, comparison of dose groups", "setting": "Week 16, 15 mg group", "value": "best results"}, {"measurement": "percentage of patients achieving a good or moderate EULAR response", "setting": "Week 16, 15 mg group (placebo 38.5%)", "value": 67.7, "unit": "%"}, {"measurement": "percentage of patients achieving a good or moderate EULAR response", "setting": "Week 16, 37.5 mg group (placebo 38.5%)", "value": 55.8, "unit": "%"}, {"measurement": "proportions of patients achieving ACR20", "setting": "Week 16, Rabeximod groups", "value": "continued to increase"}, {"measurement": "duration of morning stiffness compared with placebo", "setting": "majority of time points, Rabeximod groups", "value": "greater reductions (improvement)"}, {"measurement": "improvement in symptoms compared with placebo (plus methotrexate)", "setting": "onset at least 8-12 weeks after first dose, further improvement at Week 16", "value": "greater improvement"}, {"measurement": "percentage mean reduction from baseline in joint pain", "setting": "week 1", "value": "notable"}]}
